# Experimental data: patent US20130096100A1, “DI(ARYLAMINO)ARYL COMPOUND” (ASTELLAS PHARMA INC., priority 2007, published 2013)
# How the values were obtained:
# [1] = Toxicity test in rats, 7-day repeated oral administration (Test Example 5); type: in vivo, SD rats; conditions: 7 days; for Non-toxic dose: oral; for Dose: Bone marrow inhibition / Dose: Exacerbation of common symptoms / Dose: Moribund condition: SD, rat, in vivo, po
# Excerpt: Test compounds were each suspended in a 0.5% aqueous methylcellulose solution and repeatedly administered to SD rats (two females and four males in each group) by the oral route at each dose for 7 days.
# [2] = system: 88 types of kinases; assay: Kinase inhibition profiling, 88 types of kinases (Test Example 6); type: biochemical; conditions: concentration of 100 nM
# [3] = target: T1, MER (Homo sapiens, UniProt Q12866); assay: Kinase inhibition profiling, MER (Test Example 6); type: biochemical; conditions: 100 nM; read-out: inhibitory activity against MER
# T1 construct: purchased Carna Biosciences Inc., Japan (contract measurement)
# T1 sequence (Q12866 21-999): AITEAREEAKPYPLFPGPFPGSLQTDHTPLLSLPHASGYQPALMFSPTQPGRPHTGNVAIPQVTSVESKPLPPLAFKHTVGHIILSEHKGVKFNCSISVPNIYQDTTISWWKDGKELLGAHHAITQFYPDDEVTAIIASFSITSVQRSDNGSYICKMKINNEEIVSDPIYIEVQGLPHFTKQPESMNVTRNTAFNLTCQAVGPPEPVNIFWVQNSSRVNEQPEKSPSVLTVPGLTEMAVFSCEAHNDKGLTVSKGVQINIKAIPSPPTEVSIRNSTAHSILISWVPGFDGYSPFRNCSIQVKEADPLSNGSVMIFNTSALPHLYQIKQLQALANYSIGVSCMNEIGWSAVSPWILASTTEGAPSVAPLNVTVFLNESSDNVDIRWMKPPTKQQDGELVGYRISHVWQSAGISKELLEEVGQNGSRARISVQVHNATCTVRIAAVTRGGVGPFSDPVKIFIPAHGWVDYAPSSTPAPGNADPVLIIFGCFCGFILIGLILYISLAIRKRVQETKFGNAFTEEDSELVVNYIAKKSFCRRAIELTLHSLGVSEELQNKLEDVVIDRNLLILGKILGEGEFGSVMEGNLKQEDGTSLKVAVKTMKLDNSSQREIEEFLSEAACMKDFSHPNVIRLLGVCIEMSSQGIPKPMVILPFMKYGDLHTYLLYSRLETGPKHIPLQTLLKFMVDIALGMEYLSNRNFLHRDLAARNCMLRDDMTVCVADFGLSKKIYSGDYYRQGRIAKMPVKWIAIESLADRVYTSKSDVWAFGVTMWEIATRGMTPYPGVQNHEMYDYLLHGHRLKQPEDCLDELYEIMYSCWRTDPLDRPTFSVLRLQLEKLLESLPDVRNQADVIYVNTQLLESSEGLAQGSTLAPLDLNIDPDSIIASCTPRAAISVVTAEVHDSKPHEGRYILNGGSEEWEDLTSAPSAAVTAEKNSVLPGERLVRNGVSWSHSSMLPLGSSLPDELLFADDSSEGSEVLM
# [4] = target: T2, PHKG1 (Homo sapiens, UniProt Q16816); assay: Kinase inhibition profiling, PHKG1 (Test Example 6); type: biochemical; conditions: 100 nM; read-out: inhibitory activity against PHKG1
# T2 construct: purchased Carna Biosciences Inc., Japan (contract measurement)
# [5] = target: T3, MNK1 (Homo sapiens, UniProt Q9BUB5); assay: Kinase inhibition profiling, MNK1 (Test Example 6); type: biochemical; conditions: 100 nM; read-out: inhibitory activity against MNK1
# T3 construct: purchased Carna Biosciences Inc., Japan (contract measurement)
# T3 sequence (Q9BUB5 whole entry): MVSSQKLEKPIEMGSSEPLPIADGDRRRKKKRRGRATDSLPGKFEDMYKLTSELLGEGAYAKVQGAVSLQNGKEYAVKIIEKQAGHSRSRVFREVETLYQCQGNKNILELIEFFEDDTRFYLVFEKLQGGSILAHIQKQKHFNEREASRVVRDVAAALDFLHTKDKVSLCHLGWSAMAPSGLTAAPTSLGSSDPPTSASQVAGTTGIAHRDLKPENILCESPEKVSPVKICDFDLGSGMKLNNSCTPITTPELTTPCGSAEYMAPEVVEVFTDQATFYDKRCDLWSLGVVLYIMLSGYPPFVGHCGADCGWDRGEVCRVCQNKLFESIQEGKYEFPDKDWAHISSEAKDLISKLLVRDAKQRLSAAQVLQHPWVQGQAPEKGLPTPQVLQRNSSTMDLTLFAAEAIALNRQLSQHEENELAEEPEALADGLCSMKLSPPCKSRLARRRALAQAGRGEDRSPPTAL
# T2 sequence (Q16816 whole entry): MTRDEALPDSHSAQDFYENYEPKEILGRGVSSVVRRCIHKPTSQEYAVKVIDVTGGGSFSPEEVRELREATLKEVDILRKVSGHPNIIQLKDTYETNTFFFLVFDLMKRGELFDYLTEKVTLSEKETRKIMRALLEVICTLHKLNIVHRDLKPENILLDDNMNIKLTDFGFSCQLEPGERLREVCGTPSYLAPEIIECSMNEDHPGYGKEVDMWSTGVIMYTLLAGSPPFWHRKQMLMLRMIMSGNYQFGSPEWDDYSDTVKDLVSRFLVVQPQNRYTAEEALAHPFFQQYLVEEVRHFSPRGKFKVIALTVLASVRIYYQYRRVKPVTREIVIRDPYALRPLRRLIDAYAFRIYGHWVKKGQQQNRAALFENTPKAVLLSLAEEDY
smiles,measurement,setting,value
COc1cc(N2CCC(N3CCN(C)CC3)CC2)ccc1Nc1ncnc(Nc2ccccc2S(=O)(=O)C(C)C)n1 [Example 23],Non-toxic dose,[1]; female SD rats (2 rats),10 mg/kg
same,Dose: Bone marrow inhibition,[1]; female,100 mg/kg
same,Dose: Exacerbation of common symptoms,[1]; female,(>300) mg/kg
same,Dose: Moribund condition,[1]; female,(>300) mg/kg
same,Non-toxic dose,[1]; male SD rats (4 rats),10 mg/kg
same,Dose: Bone marrow inhibition,[1]; male,100 mg/kg
same,Dose: Exacerbation of common symptoms,[1]; male,(>300) mg/kg
same,Dose: Moribund condition,[1]; male,(>300) mg/kg
same,number of types of kinases (of 88) with 50% or more inhibitory activity,[2],4 types of kinases
same,inhibition at 0.1 µM,[3],< 20%
same,inhibition at 0.1 µM,[4],< 20%
same,inhibition at 0.1 µM,[5],60%
